Measured values reported in patent US20050037436A1, “Test systems and the use thereof for identifying and characterizing compounds” (priority 2000, published 2005).

Legend:
[1] = tested on: endogenous, natural muscarinic acetylcholine receptors; assay: Ca2+ imaging, carbachol stimulation of untransfected HEK-293 cells; assay type: cell-based, human; details: 1 mM carbachol; absence of BAY44-4400
[2] = biological target: T1, mouse β2-adrenergic receptor (Mus musculus, UniProt P18762); assay: Ca2+ imaging of HEK-293 cells transfected with β2-R-GFP (control); assay type: cell-based; details: immediately after addition
T1 construct: was fused with a C-terminal EGFP tag by amplifying the full-length cDNA with the P117 mouse 2AR XhoI 5′ primer; expressed in transfected cells; host or cells: HEK-293, transient (pEGFP-N3)
Description: (§1) The intracellular free Ca^2+ concentration [Ca^2+]i was measured in COS-7 and HEK293 cells transiently transfected with the HC110-R-EGFP or β2-AR-EGFP construct using the calcium imaging method (see also FIG. 11). In each case 2×10^5 COS-7 and HEK293 cells were applied to a 42 mm cover glass coated with 1% gelatine in 55 mm tissue culture dishes with 5 ml of DMEM medium (with 10% FCS and pen/strep). The transfection took place with the aid of the non-liposomal transfection reagent FuGENE 6 (Roche Molecular Biochemicals, Mannheim). […] Constructs of the HC110-R full-length clone with a GFP tag fused in the correct reading frame, and the complete cDNA of the β2-adrenergic receptor which had likewise been provided with a GFP tag at the 3′ end, were transfected.
(§2) After the incubation, the cells loaded with Fura-2/AM were examined under an inverted microscope (Zeiss, Axiovert, Germany) and, in parallel with this, in a digital imaging fluorescence microscope (PTI) and differentiated into transfected and untransfected cells at a wavelength of 440 and 490 nm respectively. On average, 5-7 transfected and non transfected cells were selected by fixing an ROI (region of interest). The extinction was measured at 340 nm (calcium-bound Fura-2/AM) and 380 nm (free Fura-2/AM), and the emission was measured at 510 nm. Evaluation took place using the Image Master 1.x software by forming the quotient of 340:510 nm, 380:510 nm and the ratio of 340/380:510 nm (background corrected images) as a function of the agent added.
Agents were always added 6 min after starting the measurement by removing an appropriate volume of Na^+ HBS buffer and pipetting the agent directly into the sample vessel for a further 30 to 50 min. The total volume in the sample vessel was constant at 1.5 ml throughout the experiment. […] Addition of CdCl2 and nifedipine took place immediately at the start of the experiment and before addition of α-LTX, and EGTA was added both at the start of the experiment and 4 min after the addition of α-LTX. […]
The data were analyzed using the Excel 98 table calculation programme. […]

[3] = tested on: HC110-R; assay type: cell-based, Haemonchus contortus
Description: as §1, §2
Agents were always added 6 min after starting the measurement by removing an appropriate volume of Na^+ HBS buffer and pipetting the agent directly into the sample vessel for a further 30 to 50 min. The total volume in the sample vessel was constant at 1.5 ml throughout the experiment. […] Addition of CdCl2 and nifedipine took place immediately at the start of the experiment and before addition of α-LTX, and EGTA was added both at the start of the experiment and 4 min after the addition of α-LTX. Dissolved α-LTX was present in a concentration of 300 nM in 50 mM tris-HCl, pH 8.0; BAY 44-4400 was initially dissolved in pure DMSO (stock solutions between 0.004 and 10 μg/ml). The stock solutions were adjusted to the required concentration in the Na^+ HBS buffer. The maximum amount of the active substance BAY 44-4400 which could be dissolved at a final concentration of 0.1% DMSO was found by setting up serial dilutions in Na^+ HBS.
The data were analyzed using the Excel 98 table calculation programme. The results are derived from at least 2-4 reproduced experiments on in each case 4-8 transfected and un-transfected cells.

[4] = tested on: Heterakis spumosa

T1 sequence (P18762 whole entry, the tested form may be a part): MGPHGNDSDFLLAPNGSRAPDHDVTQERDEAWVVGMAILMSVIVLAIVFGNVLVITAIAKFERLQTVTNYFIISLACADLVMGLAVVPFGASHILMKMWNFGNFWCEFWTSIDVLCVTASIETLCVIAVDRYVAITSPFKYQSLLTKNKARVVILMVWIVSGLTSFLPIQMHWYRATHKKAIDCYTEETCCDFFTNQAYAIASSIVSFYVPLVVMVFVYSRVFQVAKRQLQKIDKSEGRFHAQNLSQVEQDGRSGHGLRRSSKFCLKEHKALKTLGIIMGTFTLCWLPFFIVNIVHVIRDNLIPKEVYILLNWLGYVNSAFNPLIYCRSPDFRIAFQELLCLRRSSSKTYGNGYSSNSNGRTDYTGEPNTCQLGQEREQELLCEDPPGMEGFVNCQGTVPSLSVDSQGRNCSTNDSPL

## C[N+](C)(C)CCOC(N)=O.[Cl-] [carbachol, carbamylcholine chloride]
[1]
  carbachol-induced increase in [Ca2+]i: 53+6.8 nM

## CC(C)NCC(O)c1ccc(O)c(O)c1 (centres unmarked) [isoproterenol]
[2]
  Ca2+ response to isoproterenol: significant Ca^2+ response

## COC(=O)C1=C(C)NC(C)=C(C(=O)OC)C1c1ccccc1[N+](=O)[O-] [nifedipine]
[3]; 15 μM nifedipine
  second α-LTX-induced increase in [Ca2+]i: 30 ± 5.4 nM

## C1CNCCN1 [piperazine]
[4]
  effect of piperazine on activity of PF1022A/BAY44-4400: synergistically enhances the effect of PF1022A/BAY44-4400
[3]; 10 μM piperazine, untransfected and HC110-R-GFP-transfected cells
  change in Ca2+ balance, piperazine alone: no change in the Ca^2+ balance
